Results published in the supplement of paper PMC13380429.

Columns and labels:
Details in all cases: 72 h
Vero E6 [1] = assay: drug sensitivity score (DSS) for viability; higher = more toxic; extreme values may be limits of the assay
HepG2 [2] = assay: as above
Calu-3 [3] = assay: as above
Caco-2 [4] = assay: as above
U2OS [5] = assay: as above
Vero E6 [6] = assay: cell viability relative to DMSO; higher = less toxic
HepG2 [7] = assay: as above
Calu-3 [8] = assay: as above
Caco-2 [9] = assay: as above
U2OS [10] = assay: as above
Vero E6 [11] = assay: relative viability EC50 (midpoint between 100% and the lowest measured viability); higher = less toxic
HepG2 [12] = assay: as above
Calu-3 [13] = assay: as above
Caco-2 [14] = assay: as above
U2OS [15] = assay: as above

Row | Structure (SMILES) | drug sensitivity score (Vero E6 [1]) | drug sensitivity score (HepG2 [2]) | drug sensitivity score (Calu-3 [3]) | drug sensitivity score (Caco-2 [4]) | drug sensitivity score (U2OS [5]) | cell viability (Vero E6 [6]; 1 nM) [%] | cell viability (Vero E6 [6]; 10 nM) [%] | cell viability (Vero E6 [6]; 100 nM) [%] | cell viability (Vero E6 [6]; 1000 nM) [%] | cell viability (Vero E6 [6]; 10000 nM) [%] | cell viability (HepG2 [7]; 1 nM) [%] | cell viability (HepG2 [7]; 10 nM) [%] | cell viability (HepG2 [7]; 100 nM) [%] | cell viability (HepG2 [7]; 1000 nM) [%] | cell viability (HepG2 [7]; 10000 nM) [%] | cell viability (Calu-3 [8]; 1 nM) [%] | cell viability (Calu-3 [8]; 10 nM) [%] | cell viability (Calu-3 [8]; 100 nM) [%] | cell viability (Calu-3 [8]; 1000 nM) [%] | cell viability (Calu-3 [8]; 10000 nM) [%] | cell viability (Caco-2 [9]; 1 nM) [%] | cell viability (Caco-2 [9]; 10 nM) [%] | cell viability (Caco-2 [9]; 100 nM) [%] | cell viability (Caco-2 [9]; 1000 nM) [%] | cell viability (Caco-2 [9]; 10000 nM) [%] | cell viability (U2OS [10]; 1 nM) [%] | cell viability (U2OS [10]; 10 nM) [%] | cell viability (U2OS [10]; 100 nM) [%] | cell viability (U2OS [10]; 1000 nM) [%] | cell viability (U2OS [10]; 10000 nM) [%] | relative viability EC50 (Vero E6 [11]) [µM] | relative viability EC50 (HepG2 [12]) [µM] | relative viability EC50 (Calu-3 [13]) [µM] | relative viability EC50 (Caco-2 [14]) [µM] | relative viability EC50 (U2OS [15]) [µM]
1 | NCCCC[C@H](NC(=O)[C@@H](Cc1cc(Br)c(O)c(Br)c1)NC(=O)N1CCC(N2Cc3ccccc3NC2=O)CC1)C(=O)N1CCN(c2ccncc2)CC1 [BIBN4096] | 0 | 0 | 0 | 0 | 0.3 | 102 | 97.2 | 98.6 | 99.1 | 104 | 102 | 97.2 | 92.4 | 97.5 | 102 | 93.7 | 96.9 | 100 | 110 | 105 | 88.6 | 97 | 101 | 90.3 | 100 | 95.8 | 98.5 | 94.8 | 84.5 | 91.6 | > 10 | > 10 | > 10 | > 10 | > 10
2 | CCOC(=O)[C@]12CC1/C(=N\O)c1ccccc1O2 (stereo not given in full) [CPCCOEt] | 0 | 0 | 0 | 0 | 0 | 93.5 | 99.1 | 90.6 | 95.2 | 110 | 91.7 | 102 | 93.5 | 104 | 99.2 | 94.1 | 105 | 92.3 | 98.4 | 95.4 | 103 | 94.7 | 89.2 | 98.8 | 104 | 98.7 | 92.2 | 96.4 | 94.4 | 96.4 | > 10 | > 10 | > 10 | > 10 | > 10
3 | O=C(c1cc(C2CC2)on1)N(C1CCCCC1)C1CCCCC1 [CYM-5541] | 0 | 0 | 0 | 0 | 0 | 106 | 103 | 99.5 | 95.3 | 99.6 | 98.6 | 93.9 | 98.4 | 92.3 | 89.6 | 102 | 98.1 | 97.2 | 96.8 | 99 | 94.9 | 97.8 | 97.5 | 99.4 | 90 | 98 | 97.8 | 96.3 | 97.2 | 94.4 | > 10 | > 10 | > 10 | > 10 | > 10
4 | OC[C@@H](O)[C@@H](O[C@@H]1O[C@H](CO)[C@H](O)[C@H](O)[C@H]1O)[C@H](O)[C@@H](O)CO [D-LACTITOL MONOHYDRATE] | 0 | 0 | 0 | 0 | 0 | 100 | 98.6 | 95.4 | 92.8 | 99.3 | 94 | 105 | 96.2 | 89.2 | 97.4 | 106 | 94.9 | 99.6 | 96.3 | 93.5 | 92.3 | 92.3 | 98.6 | 103 | 97.2 | 101 | 96.9 | 95.6 | 99.8 | 103 | > 10 | > 10 | > 10 | > 10 | > 10
5 | CCN(CC)c1ccc(/C=N/NC(=O)c2ccc(O)cc2)cc1 [DY131] | 0 | 0.2 | 0 | 0 | 0 | 107 | 98.3 | 101 | 102 | 95.1 | 102 | 105 | 95.9 | 105 | 83.4 | 95.4 | 91.5 | 99.8 | 97.8 | 95.3 | 94.3 | 96.4 | 98.4 | 95.4 | 98.2 | 99.6 | 97.5 | 101 | 95.4 | 97.6 | > 10 | > 10 | > 10 | > 10 | > 10
6 | C[C@]12CCC(=O)C[C@@H]1CC[C@@H]1[C@@H]2CC[C@]2(C)[C@@H](O)CC[C@@H]12 [Dihydrotestosterone] | 0 | 0 | 0 | 0 | 0 | 106 | 99.3 | 101 | 100 | 104 | 112 | 95.8 | 99.3 | 106 | 95.3 | 97.6 | 99.9 | 101 | 98.9 | 94.3 | 108 | 93.1 | 103 | 102 | 97.5 | 98.2 | 104 | 94.8 | 103 | 98.9 | > 10 | > 10 | > 10 | > 10 | > 10
